In patent US12673918B2, “Small molecule RPN13 inhibitors with antitumor properties” (The Johns Hopkins University, priority 2019, dated 2026):

What was measured:
ID8-vegf = settings: mouse
ID8 (murine) = experiment: MTT cytotoxicity assay, ID8; assay type: cell-based; settings: Mus musculus, 48 h, read-out: IC50 ID8 (murine)
JHU29 = experiment: MTT cytotoxicity assay, JHU29; assay type: cell-based; settings: Table 3, 48 hr, Head & Neck (HPV −ve)
Description: The cytotoxic efficacy of selected compounds was assessed against multiple myeloma (MM) cell lines, as this is a validated clinical target for the licensed proteasome inhibitors.
(§1) Cell lines and cytotoxicity assays: All cell lines were obtained from the American Type Culture Collection (ATCC) and cultured in the specified medium supplemented with 10% fetal bovine serum, 100 IU/mL penicillin, and 100 μg/mL streptomycin at 37° C. in a humidified 5% CO2/95% air incubator. […] To assess drug cytotoxicity, cells were seeded at 2,500 cells/well (10,000 cells/well for MM lines) in 100 μL medium in 96-well plate and after 24 treated with compounds for 72 h, incubated according to the manufacturer's protocol with the Thiazolyl Blue Tetrazolium Bromide (Sigma, M2128) and A570 measured using a Benchmark Plus microplate spectrophotometer (BIO-RAD). IC50 data was analyzed by Graphpad Prism software. In the chirality studies the cells were treated with compounds for 48 h, and the cells were incubated and measured via the preceeding protocols.

VU147T = experiment: MTT cytotoxicity assay, VU147T; assay type: cell-based; settings: Table 3, 48 hr, Head & Neck (HPV +ve)
Description: (§2) Cell lines and cytotoxicity assays: All cell lines were obtained from the American Type Culture Collection (ATCC) and cultured in the specified medium supplemented with 10% fetal bovine serum, 100 IU/mL penicillin, and 100 μg/mL streptomycin at 37° C. in a humidified 5% CO2/95% air incubator. […] To assess drug cytotoxicity, cells were seeded at 2,500 cells/well (10,000 cells/well for MM lines) in 100 μL medium in 96-well plate and after 24 treated with compounds for 72 h, incubated according to the manufacturer's protocol with the Thiazolyl Blue Tetrazolium Bromide (Sigma, M2128) and A570 measured using a Benchmark Plus microplate spectrophotometer (BIO-RAD). IC50 data was analyzed by Graphpad Prism software.

SSC25 = experiment: MTT cytotoxicity assay, SSC25; assay type: cell-based; settings: Table 3, 48 hr, Head & Neck (HPV −ve)
Description: as §2

[1] = system: proteasome (4UbFL reporter); experiment: 4UbFL reporter in leg muscle of BALB/c mice; assay type: in vivo; settings: single i.p. administration to mice
Description: FIG. 9B illustrates BALB/c mice electroporated with 4UbFL plasmid (10 μg/mouse) in the leg muscle and the basal luminescence was recorded after 48 hr. Groups of mice (n=5) were treated with different compound (40 mg/Kg) or vehicle alone (25% (w/v) β-Hydroxypropylcyclodextrin in water). Mice were imaged for bioluminiscence activity using IVIS instrument at 4, 24, 48, 72 and 96 hr.
To test for proteasome inhibition by RA375 in vivo, an electroporation delivery was employed to transfect the leg muscle of mice with the 4UbFL reporter plasmid. […] At two days post electroporation of the 4UbFL DNA, mice were imaged, and base line luminescence recorded. […] After 4 h, 24 h, 48 h, 72 h and 96 h post treatment mice were again imaged, and bioluminescence was quantified.
Electroporation Method: A patch of CD1 or Balb/c mouse leg was shaved of hair and 10 μg 4Ub-FL plasmid in 20 μL of PBS was injected into the quadriceps femoralis muscle followed immediately by injection of the 2 Needle Array to 5 mm depth encompassing the injection site and square wave electroporation (ElectroSquarePorator 833, BTX-2 Needle array 5 mm gap, Harvard apparatus) delivered as eight pulses at 106V for 20 ms with 200 ms intervals. […] Equally sized areas were analyzed using Living Image 2.20 software. […]

[2] = system: proteasome (4UbFL reporter); experiment: 4UbFL reporter in leg muscle of CD1 mice; assay type: in vivo
Description: Pilot safety studies were performed in CD1 mice (n=3/dose group of healthy female mice aged 6-8 weeks) with increasing single doses delivered i.p. and the NOAEL (no-observed-adverse-effect level) was selected for further animal studies. […] Bortezomib was dissolved in a minimal amount of DMSO and further diluted with saline before injection in a dose finding study. […] To measure on-target inhibition of proteasome activity in mice, a leg muscle of CD-1 mice was transduced with the 4UbFL reporter construct. […] Briefly, mouse leg muscle was electroporated with 4UbFL plasmid and basal bioluminescence was measured after 24 hr using IVIS200 imager after injecting luciferin substrate. Mice were randomized (n=5/group) and treated with compounds in PEG400: Cremophor: Tween40 combination or vehicle alone as shown in Table 5 with one dose delivered by intraperitoneal injection. The mice were again imaged at 4 h, 24 h, 48 h post treatment.

RPN13 = RPN13 (Homo sapiens, UniProt Q16186); experiment: RA183B competition / direct biotin labelling of RPN13 in cell lysate; assay type: binding; settings: SKOV3 cell lysate pre-treated with compound, labelled with RA183B
Description: It has been shown preciously that RA183 adducts Cysteine 88 of RPN13 (13). […] Samples were subjected to SDS-PAGE and transferred to a PVDF membrane. The membrane was probed with HRP-Streptavidin antibody, and the blot developed using chemiluminescence.
A direct labelling assay in cell lysate of ES2, a human ovarian cancer-derived cell line, using RA413B and RA183B was performed.
Biotin labeling Assay: Clarified cell lysate in MPER buffer was pretreated with streptavidin magna beads for 45 min at 4° C. to deplete non-specific biotinylated proteins in the cell lysate. The beads were separated and 40 μL of the pre-cleared cell lysate was incubated with compounds (20 μM) for 45 min at 4° C., and then treated with RA183B, RA190B, or RA413SB (10 μM) for 45 min at 4° C. Next, the samples were mixed with Laemmli sample buffer (BioRad) and boiled for 5 min. […] (24 V). The membrane was blocked with 5% BSA in PBST for 1 hr at RT and washed for 20 minutes (3× with PBST). Then the membrane was probed with HRP-streptavidin (1:10,000 in PBST) for 1 hr at RT, washed for 30 min (3× with PBST), and developed using HyGLO chemiluminescent detection reagent (Denville) for biotin detection.

[3] = Repeat dose MTD in healthy female CD1 mice; settings: mouse, in vivo, 3 repeated doses every third day
Text: The starting doses were based on previous studies with RA183. Doses were escalated incrementally in steps of not more than 50%. When either of these endpoints was met, dose escalation was halted and the prior dose was set as the MTD.

DU145 = experiment: MTT cytotoxicity assay, DU145; settings: Homo sapiens, DU-145, read-out: cytotoxicity IC50 DU145
Description: as §1

ES2 cells = experiment: Annexin V apoptosis flow cytometry, ES2 cells; assay type: cell-based, human; settings: ES2, 12 hr
Description: FIG. 7D illustrates surface PS staining of 10^5 ES2 cells treated with compounds for 12 hr and re-suspended in binding buffer and labeled with Annexin V-PE and 7-AAD at RT for 15 min and analyzed by flow cytometry (Becton Dickinson, Mountain View, CA).
FIG. 16D illustrates ES2 cells were treated with compounds at indicated doses for 12 hr then re-suspended in 100 μL binding buffer with 5 μL of Annexin V-PE and 5 μL of 7-AAD to examine early apoptosis. After a 15 min incubation at RT, the cells were analyzed by flow cytometry using a FACSCalibur and CellQuest software.

NF-κB [4] = experiment: NF-κB dependent luciferase reporter in 293T cells; assay type: cell-based; settings: 293T NF-κB luciferase, drug treatment 7 hr
Text: FIG. 21C illustrates 293T cells stably expressing NF-κB dependent luciferase gene that show a dose dependent reduction in bioluminescence with drug treatment (7 hr) measured by luminometer.
Activation of NF-κB is regulated by IκB proteins. IκB-α ubiquitination and degradation is an important step for the nuclear localization of NF-kB and activation of its transcriptional program.

NF-κB [5] = settings: 293T cells stably expressing NFkB-Luc reporter; previously observed (13); read-out: IC50 of NF-κB signaling inhibition; cited from earlier work

Sequence of RPN13 (Q16186 whole entry): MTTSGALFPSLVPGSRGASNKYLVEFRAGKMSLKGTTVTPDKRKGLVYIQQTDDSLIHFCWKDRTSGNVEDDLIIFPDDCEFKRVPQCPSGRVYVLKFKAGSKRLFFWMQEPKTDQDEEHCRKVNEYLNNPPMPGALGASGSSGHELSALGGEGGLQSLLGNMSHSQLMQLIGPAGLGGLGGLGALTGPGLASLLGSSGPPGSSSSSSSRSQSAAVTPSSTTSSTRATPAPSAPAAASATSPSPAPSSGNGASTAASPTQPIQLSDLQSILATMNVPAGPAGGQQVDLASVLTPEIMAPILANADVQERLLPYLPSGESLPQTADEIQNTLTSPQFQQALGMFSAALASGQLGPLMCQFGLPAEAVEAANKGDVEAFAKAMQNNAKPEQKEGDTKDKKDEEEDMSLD
Description for SKOV3: as §2

O=C(CCl)N[C@@H](Cc1ccccc1)C(=O)N1C/C(=C\c2ccc([N+](=O)[O-])cc2)C(=O)/C(=C/c2ccc([N+](=O)[O-])cc2)C1 [RA375]
IC50 (ID8-vegf): 0.044 µM | IC50 (ID8 (murine)): 0.044 µM | IC50 (JHU29): 0.173 µM | IC50 (VU147T): 0.04 µM | IC50 (SSC25): 0.189 µM | duration of proteasome inhibition in muscle [1]: > 72 h

CC1/C(=C\c2ccc([N+](=O)[O-])cc2)C(=O)/C(=C/c2ccc([N+](=O)[O-])cc2)CN1C(=O)[C@H](Cc1ccccc1)NC(=O)CCl (stereo partly drawn) [RA414]
duration of on-target activity (4UbFL, leg muscle) ([2]; CD1 mice, 3 mg/kg i.p., PEG system): on-target activity over 72 hr similar to bortezomib | competition with RA183B binding to RPN13 (RPN13): inhibited by pre-incubation with RA414 | MTD [3]: 10 mg/kg | IC50 (DU145): 0.017 µM

C[C@H]1/C(=C\c2ccc([N+](=O)[O-])cc2)C(=O)/C(=C/c2ccc([N+](=O)[O-])cc2)CN1C(=O)[C@@H](N)Cc1ccccc1
fold increased bioluminescence (4UbFL, leg muscle) ([2]; CD1 mice, 30 mg/kg i.p., PEG400: Cremophor: Tween40, at 4 h and 24 h): 4-6 fold | fold increased bioluminescence (4UbFL, leg muscle) ([2]; mouse, in vivo, ip, 30 mg/kg): 14-22 fold | MTD [3]: 20 mg/kg | surface display of Annexin V versus RA183 (ES2 cells): more potently activated a biomarker of early apoptosis | fold more cytotoxic than RA413R (SKOV3): 4 fold | decrease in NF-κB activity, relative potency (NF-κB [4]): more potent than for RA183

N[C@@H](Cc1ccccc1)C(=O)N1C/C(=C\c2ccc([N+](=O)[O-])cc2)C(=O)/C(=C/c2ccc([N+](=O)[O-])cc2)C1 [RA183, reference compound]
IC50 (ID8 (murine)): 0.198 µM | IC50 (NF-κB [5]): 0.1 µM
